The record followed here is PMC9911596 (Nature Communications, 2023).

Structures are written as SMILES. Residue numbers refer to the chain shown, from its start.

The target of test [1] is T1, Vtc1/Vtc3/Vtc4 complex (VTC complex) (Saccharomyces cerevisiae, UniProt P47075+Q02725).
T1 construct: full-length subunits co-expressed in Expi293F; Vtc1 C-terminal HA, Vtc3 N-terminal 3xFlag, Vtc4 C-terminal 2xStrep; detergent-purified; 3:1:1 pentamer; with Vacuolar transporter chaperone complex subunit 1
T1 sequence (P47075 1-721): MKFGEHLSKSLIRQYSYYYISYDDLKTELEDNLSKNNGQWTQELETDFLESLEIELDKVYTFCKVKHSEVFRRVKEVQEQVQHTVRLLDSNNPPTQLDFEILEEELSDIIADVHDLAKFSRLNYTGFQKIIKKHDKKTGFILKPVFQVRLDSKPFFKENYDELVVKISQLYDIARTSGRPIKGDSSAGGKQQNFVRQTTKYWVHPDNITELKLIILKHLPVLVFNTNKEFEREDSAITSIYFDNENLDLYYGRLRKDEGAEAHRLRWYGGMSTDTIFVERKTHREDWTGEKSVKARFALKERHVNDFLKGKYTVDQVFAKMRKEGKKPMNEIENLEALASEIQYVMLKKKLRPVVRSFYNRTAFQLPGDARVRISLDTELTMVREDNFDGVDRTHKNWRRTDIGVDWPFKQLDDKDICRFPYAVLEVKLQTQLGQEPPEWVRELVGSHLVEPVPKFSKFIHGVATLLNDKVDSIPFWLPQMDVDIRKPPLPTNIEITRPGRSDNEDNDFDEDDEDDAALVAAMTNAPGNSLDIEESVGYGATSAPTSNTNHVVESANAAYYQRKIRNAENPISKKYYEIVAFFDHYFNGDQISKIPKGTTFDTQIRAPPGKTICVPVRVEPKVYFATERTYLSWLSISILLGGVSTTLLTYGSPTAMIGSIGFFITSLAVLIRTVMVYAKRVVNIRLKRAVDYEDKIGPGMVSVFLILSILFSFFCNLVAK
T1 sequence (Q02725 1-835): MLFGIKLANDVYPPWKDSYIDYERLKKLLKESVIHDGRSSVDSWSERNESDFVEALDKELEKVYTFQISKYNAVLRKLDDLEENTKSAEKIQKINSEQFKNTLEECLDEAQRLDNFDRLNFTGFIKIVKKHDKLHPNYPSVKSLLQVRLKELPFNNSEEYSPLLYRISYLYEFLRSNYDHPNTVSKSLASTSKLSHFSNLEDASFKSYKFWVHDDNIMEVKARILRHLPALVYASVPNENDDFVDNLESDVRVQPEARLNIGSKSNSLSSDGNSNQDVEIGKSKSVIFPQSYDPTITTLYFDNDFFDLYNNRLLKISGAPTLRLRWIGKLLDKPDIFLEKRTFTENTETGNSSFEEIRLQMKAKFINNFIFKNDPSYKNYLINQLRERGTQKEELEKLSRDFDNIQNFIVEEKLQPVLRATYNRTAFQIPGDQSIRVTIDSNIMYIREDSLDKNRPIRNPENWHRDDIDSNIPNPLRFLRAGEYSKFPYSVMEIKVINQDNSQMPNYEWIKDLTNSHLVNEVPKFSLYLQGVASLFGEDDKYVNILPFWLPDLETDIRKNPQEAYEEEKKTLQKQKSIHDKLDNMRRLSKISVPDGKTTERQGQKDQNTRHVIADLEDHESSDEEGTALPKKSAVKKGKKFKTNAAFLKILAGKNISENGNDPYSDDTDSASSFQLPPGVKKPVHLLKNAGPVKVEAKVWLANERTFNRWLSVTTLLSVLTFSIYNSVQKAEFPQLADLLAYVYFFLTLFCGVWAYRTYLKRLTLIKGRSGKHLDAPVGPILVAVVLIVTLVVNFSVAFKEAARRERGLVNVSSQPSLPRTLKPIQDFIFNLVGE
T1 sequence (P40046 2-129 partner): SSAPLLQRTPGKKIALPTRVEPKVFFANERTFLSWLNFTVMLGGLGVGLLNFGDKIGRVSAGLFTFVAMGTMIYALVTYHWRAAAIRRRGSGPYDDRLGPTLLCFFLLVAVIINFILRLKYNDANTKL
In words: polyP synthesis, TBE-PAGE and DAPI; smFRET. It is filed as biochemical. The settings on record: activator; 15 mM ATP, 10 mM MgCl2, 1 mM MnCl2, 0.5 mM pyrophosphate, ATP regeneration, 27 °C, 4 h; up to 10 mM InsP6; SPX domain of Vtc4 as sensor.

Test [2] addresses T2, Vtc1/Vtc3/Vtc4 complex (VTC complex) (Saccharomyces cerevisiae, UniProt P47075+Q02725, P47075:Y22F/P47075:K26A/P47075:K133A).
T2 construct: full-length subunits co-expressed in Expi293F; Vtc1 C-terminal HA, Vtc3 N-terminal 3xFlag, Vtc4 C-terminal 2xStrep; detergent-purified; 3:1:1 pentamer; with Vacuolar transporter chaperone complex subunit 1
T2 sequence (P47075 1-721 Y22F/K26A/K133A): T1 sequence (P47075 1-721) with Y22F, K26A, K133A
T2 sequence (Q02725 1-835): T1 sequence (Q02725 1-835)
T2 sequence (P40046 2-129 partner): T1 sequence (P40046 2-129 partner)
In words: polyP synthesis, TBE-PAGE. The settings on record: activator; 15 mM ATP, 10 mM MgCl2, 1 mM MnCl2, 0.5 mM pyrophosphate, 27 °C, 4 h; SPX PBC mutant. It is filed as biochemical.

On to `O=P(O)(O)O[C@H]1[C@H](OP(=O)(O)O)[C@@H](OP(=O)(O)O)[C@H](OP(=O)(O)O)[C@@H](OP(=O)(O)O)[C@H]1OP(=O)(O)O` [InsP6], for which the “polyP synthesis, TBE-PAGE and DAPI; smFRET” value in test [1] was “harbors polyP polymerase activity and that synthesizes polyP in an InsP6 dose-dependent manner”. Further, the “polyP synthesis, TBE-PAGE” value in test [2] is on record as “both reduced InsP6-stimulated polyP synthesis”.
